In patent publication US20090163521A1, “Novel Pyrazolopyrimidinone Derivatives” (ORCHID RESEARCH LABORATORIES LIMITED, priority 2005, published 2009):

Assays:
TNF-α = assay: LPS induced sepsis for measurement of TNF-α inhibition in mice; format: in vivo; settings: at 50 mg/kg, oral, serum 90 min after LPS
Experimental: The LPS induced sepsis model in mice was performed as described by Les sekut et al (J Lab Clin Med 1994; 124:813-20). Female Swiss albino mice were selected and the body weights were equivalent within each group. The mice were fasted for 20 hours with free access to water. The mice were dosed orally with the test compound suspended in vehicle containing 0.5% Tween 80 in 0.25% Carboxy-methylcellulose sodium salt. The control mice were administered the vehicle alone. After 30 min of oral dosing, mice were injected with 500 μg of Lipopolysaccharide (Escherichia coli, LPS: B4 from Sigma) in phosphate buffer saline solution into the intraperitoneal cavity of the mice. After 90 min of LPS administration mice were bled via retro-orbital sinus puncture. Blood samples were stored overnight at 4° C. Serum samples were collected by centrifuging the samples at 400 rpm for 15 min at 4° C. Immediately the serum samples were analysed for TNFα levels using commercially available mouse TNF-α ELISA kit (Amersham Biosciences) and assay was performed by the manufacturer instruction.

NCI-H460 = assay: DTP human tumor cell line screen, NCI-H460; format: cell-based; settings: 100 μM; 48 hours; percent growth of control
Experimental: (§1) The current assay utilizes a 384 well plate format and fluorescent staining technologies resulting in greater screening capacity for testing of synthetic samples.
(§2) The cell lines of the cancer-screening panel are grown in RPMI 1640 medium containing 5% fetal bovine serum and 2 mM L-glutamine. For a typical screening experiment, cells are inoculated into 96 well microtiter plates in 100 μL. After cell inoculation, the micro-titer plates are incubated at 37° C., 5% CO2, 95% air and 100% relative humidity for 24 h prior to addition of experimental drugs. The cells are plated a densities of 5000 cells/well (MCF7), 1000 cells/well (NCI-H460), and 7500 cells/well (SF-268) to allow for varying doubling time of the cell lines. Each plate contains all three-cell lines, a series of dilutions of standard agents, total kill wells and appropriate controls. Plates are incubated under standard conditions for 24 hours prior to addition of experimental compounds or extracts.
(§3) Experimental compounds are solubilized in dimethyl sulfoxide (DMSO) at 400-times the desired maximum test concentration (maximum final DMSO concentration of 0.25%) and stored frozen. Compounds are then diluted with complete media with 0.1% gentamicin sulfate (5 μl of test sample in 100% DMSO is added to 565 μl of complete medium). 20 μl of this solution is then dispensed into test wells containing 50 μl of cell suspension to yield a test concentration of 1.00E-04M.
(§4) After compound addition, plates are incubated at standard conditions for 48 hours, 10 μl/well Alamar Blue is added and the plates are incubated for an additional 4 hours. Fluorescence is measured using an excitation wavelength of 530 nm and an emission wavelength of 590 nm.
(§5) Percent growth is calculated on a plate-by-plate basis for test wells relative to control wells. Percent Growth is expressed as the ratio of fluorescence of the test well to the average fluorescence of the control wells ×100.

Ulcerogenic potential = format: in vivo, rat; settings: oral; 4 hrs after administration; dose selected 50, 100, 200 mg/kg
Source text: In order to evaluate compound's role on the ulcer formation, the animals were sacrificed and the stomach was taken out and flushed with 1% formalin. Animals (male wistar 200 gm) were fasted for 18 hrs free access to water and the test compounds were suspended in 0.5% Tween 80 and 0.25% CMC (carboxymethylcellulose) solution to make a uniform suspension. After 4 hrs of oral administration of test compounds, all the animals were sacrificed by cervical dislocation. Dissect the stomach carefully and filled up with a sterile saline solution and embedded in 6% formalin solution. […] Compare the test compound treated groups with the vehicle treated groups. Dose selected: 50, 100, 200 mg/kg (Marco Romano et al, Journal of clinical Investigation, 1992; 2409-2421).

MCF-7 = assay: DTP human tumor cell line screen, MCF-7; format: cell-based; settings: 100 μM; 48 hours; percent growth of control
Experimental: as §1, §2, §3, §4, §5

COX-2 = target: T1, COX-2 (Homo sapiens, UniProt P35354); assay: Human whole blood assay (LPS-induced PGE2, COX-2 inhibition); format: cell-based; settings: LPS stimulated
T1 construct: Fresh blood was collected in tubes containing sodium heparin by vein puncture from healthy male volunteers; endogenous in cells; host or cells: human whole blood from healthy male volunteers, aspirin-pretreated and LPS-stimulated
T1 sequence (P35354 18-604): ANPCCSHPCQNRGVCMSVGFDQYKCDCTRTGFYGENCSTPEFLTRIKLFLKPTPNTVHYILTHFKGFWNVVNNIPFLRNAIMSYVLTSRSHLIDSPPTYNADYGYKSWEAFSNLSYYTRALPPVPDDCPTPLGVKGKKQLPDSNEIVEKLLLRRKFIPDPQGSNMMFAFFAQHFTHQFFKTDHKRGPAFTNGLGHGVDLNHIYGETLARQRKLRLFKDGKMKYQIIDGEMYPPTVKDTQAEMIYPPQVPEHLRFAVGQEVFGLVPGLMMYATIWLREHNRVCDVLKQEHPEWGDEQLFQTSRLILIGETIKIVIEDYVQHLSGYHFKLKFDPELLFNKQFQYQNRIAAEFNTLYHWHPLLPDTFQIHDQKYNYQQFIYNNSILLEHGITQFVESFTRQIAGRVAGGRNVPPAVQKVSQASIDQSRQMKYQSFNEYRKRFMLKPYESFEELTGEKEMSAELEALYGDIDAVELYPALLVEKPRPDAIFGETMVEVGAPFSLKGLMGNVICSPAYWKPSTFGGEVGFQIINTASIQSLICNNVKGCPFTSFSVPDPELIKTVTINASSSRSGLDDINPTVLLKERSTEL
Experimental: Human whole blood provides a protein and cell rich milieu appropriate for the study of biochemical efficacy of anti-inflammatory compounds such as selective COX-2 inhibitors. […] This is correlating with the observation that COX-2 inhibitors have no effect on prostaglandin E2 (PGE2) production in normal blood. These inhibitors were active only after incubation of human blood with lipopolysaccharide (LPS), which induces COX-2 production in the blood.
Fresh blood was collected in tubes containing sodium heparin by vein puncture from healthy male volunteers. The subjects should have no apparent inflammatory conditions and not taken NSAIDs for at least 7 days prior to blood collection. Blood was preincubated with aspirin in vitro (12 μg/ml, at time zero) to inactivate COX-1 for 6 hours. Then test compounds (at various concentrations) or vehicle were added to blood. After that blood was stimulated with LPS B:4 (10 μg/ml) and incubated for another 18 h at 37° C. water bath. After which the blood was centrifuged, plasma was separated and stored at −80° C. (J. Pharmacol. Exp. Ther, 271, 1705, 1994; Proc. Natl. Acad. Sci. USA, 96, 7563, 1999). The plasma was assayed for PGE2 using Cayman ELISA kit as per the procedure outlined by the manufacturer (Cayman Chemicals, Ann Arbor, USA).

SF-268 = assay: DTP human tumor cell line screen, SF-268; format: cell-based; settings: 100 μM; 48 hours; percent growth of control
Experimental: as §1, §2, §3, §4, §5

CSc1ccc(-c2nc3[nH]nc(N)c3c(=O)n2-c2ccc(C)c(C)c2)cc1 [Example 2, 3-amino-5-(3,4-dimethylphenyl)-6-[4-(methylthio)phenyl]-1,5-dihydro-4H-pyrazolo[3,4-d]pyrimidin-4-one]
melting point: 263 to 266 °C | TNF-α Inhibition (%) (TNF-α): 34.29 (at 50 mg/kg) % | % T/C Lung (NCI-H460) (NCI-H460): 7% | Ulcer Incidence (Number of animals/Total number of animals) (Ulcerogenic potential): No ulcer | % T/C Breast (MCF-7) (MCF-7): 31% | inhibition at 0.25 µM (COX-2; 0.25 μM): 21.9% | inhibition at 10 µM (COX-2; 10 μM): 16.8% | % T/C CNS (SF-268) (SF-268): 39%
